From US12208076B2 (Southern Methodist University, priority 2020, dated 2025)

Test: Thermogravimetric analysis (TGA), thermal stability
Type: physicochemical
Settings: 10° C./min, nitrogen
Method: TGA. […] Each sample was placed in an alumina crucible and heated from 25 to 1000° C. at a heating rate of 10° C./min under a constant flow of nitrogen. […] The different thermal decomposition pattern of a-CAA further supports the hypothesis that the milling product is a co-amorphous formulation and not a physical mixture of amorphous starting materials. […] The similarity between the IR spectra of both formulations points to similarities in their local structures and is indicative of a 1:1 stoichiometry. This stoichiometry was confirmed by thermal analyses. […] The similar TGA profiles of dried c-CAA and a-CAA, shown in FIGS. 3A and 3B, further confirm that the co-amorphous and the co-crystalline formulation have the same stoichiometry and similar local structures.

Structure (SMILES)	decomposition temperature (stable up to) [°C]
O=C(O)CC(O)(CC(=O)O)C(=O)O [citric acid anhydrate]	164
CN(CC(=O)O)C(=N)N [creatine anhydrate]	220
